# Results taken from article PMC11823594, “Durlobactam in combination with β-lactams to combat Mycobacterium abscessus” (Antimicrobial Agents and Chemotherapy, 2024).
# Where two headings read alike, the source gives them in different places.
# Experiments:
# [1] = Predicted average unbound steady-state plasma concentration (fCss,avg) at clinically relevant doses; design: species or system human
# Mab ATCC 19977 strain = assay: MIC testing (CLSI, Middlebrook 7H9 broth); assay type: cell-based, Mycobacterium abscessus; conditions: for MIC: Mycobacteroides abscessus, read-out: MIC, alone
# BlaMab = BlaMab (Mycobacterium abscessus, UniProt B1MCI3); assay: Ki,app for the β-lactamase; assay type: biochemical
# DDC = DDC (Mycobacteroides abscessus, UniProt B1MDJ1); assay: Steady-state kinetics with nitrocefin (Ki,app); assay type: biochemical; conditions: in parentheses in Table 3;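 note: Parenthesised value is the fCss,avg to Ki,app ratio where above 1 means target likely hit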
# Experimental: (§1) Steady-state kinetic studies were conducted using purified LDTs and PBPs (LDT1-5, PBP B, PBP-lipo, and DDC) as previously described ([20]). The assays were performed using a BioTek Synergy2 multimode reader in conjunction with Gen5 analysis software. […] To determine reaction velocities, a 0.25 cm path length was employed. The steady-state kinetic parameters (Vmax, kcat, and Km) were obtained by fitting the data to the Henri-Michaelis-Menten equation using a nonlinear least-squares fit in Origin 8.1 software (OriginLab, Northampton, MA). The reaction rate (v) at a given substrate concentration ([S]) was calculated according to the following equations: […]
# (§2) Changes in absorbance at 482 nm were measured over a period of 0–30 min for each concentration of β-lactams and BLIs. Data were linearized using a Dixon plot, plotting the inverse changes in absorbance (1/ΔA) against the concentrations of β-lactams and BLIs. The observed Ki,app was determined directly from the Dixon plot, and these values were corrected for substrate concentration and affinity for the LDT using the following equation:
# (§3) Ki,app=observed Ki,app/1+[NCF]/Km NCF
# LDT5 = LDT5 (Mycobacterium abscessus, UniProt B1MM58); assay: Steady-state kinetics with nitrocefin (Ki,app); assay type: biochemical; conditions: in parentheses in Table 3
# Experimental: as §1, §2, §3
# PBP B = PBP B (Mycobacterium abscessus, UniProt B1MP31); assay: Steady-state kinetics with nitrocefin (Ki,app); assay type: biochemical;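 for Ratio of fCss,avg to Ki,app, PBP B: Parenthesised value is the fCss,avg to Ki,app ratio where above 1 means target likely hit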
# Experimental: as §1, §2, §3
# LDT3 = LDT3 (Mycobacterium abscessus, UniProt B1MHQ4); assay: Mass spectrometry of covalent adduct formation; assay type: binding; conditions: protein:drug 1:20, 2 h; mass accuracy ±5 Da; (−) = no change
# Experimental: Truncated sequences of LDT1-5, DDC, PBP B, and PBP-lipo (Δ1–41) were generated by Celtek Biosciences and cloned into the pET28(a) + vector with a tobacco etch virus (TEV) protease cleavage site before the start codon. Clones were transformed into Escherichia coli BL21 (DE3) and grown to an OD600 of 0.6–0.8. Protein expression was induced with 0.25 mM isopropyl β-d-1-thiogalactopyranoside (IPTG) and incubated for 18 h at 18°C. Cell pellets were collected and stored at −20°C overnight, then resuspended in a buffer containing 50 mM Tris (pH 8.0), 400 mM sodium chloride, and 1 mM Tris (2-carboxyethyl) phosphine hydrochloride (TCEP), followed by sonication and centrifugation. The supernatant was purified using a His Prep FF 16/10 column (GE Healthcare) and eluted with 500 mM imidazole. Eluted protein was dialyzed overnight at 4°C in a buffer with 50 mM Tris (pH 8.0), 150 mM sodium chloride, and 0.5 mM TCEP in the presence of His-tagged TEV protease. To remove the His tag, the mixture was passed over the His Prep FF 16/10 column again.
# The purified proteins listed above were incubated at room temperature with β-lactams or BLIs at a molar ratio of 1:20 for 2 h. The reactions were then quenched with acetonitrile and diluted to 1 mL with 0.1% formic acid in water. Samples were analyzed using a quadrupole time-of-flight (Q-TOF) Waters Synapt-G2-Si electrospray ionization mass spectrometer (ESI-MS) and a Waters Acquity H class ultra-performance liquid chromatography (UPLC) system, equipped with a BEH C18 1.7 µm column (2.1 × 50 mm). The MS was tuned with the following settings: capillary voltage set at 3 kV, sampling cone at 35 V, source offset at 35, source temperature of 100°C, desolvation temperature of 500°C, cone gas flow rate at 100 L/h, desolvation gas flow rate at 800 L/h, and nebulizer set at 6.0. The mobile phases consisted of 0.1% formic acid in water and 0.1% formic acid in 100% acetonitrile, with gradient elution from 10% to 90% of […] over 11 min. The system’s mass accuracy was ±5 Da.
# LDT1 = LDT1 (Mycobacterium abscessus, UniProt B1MDC1); assay: Steady-state kinetics with nitrocefin (Ki,app); assay type: biochemical; conditions: for Ki: nitrocefin at 5 × Km, read-out: Ki,app LDT1 (converted)
# Experimental: (§4) Steady-state kinetic studies were conducted using purified LDTs and PBPs (LDT1-5, PBP B, PBP-lipo, and DDC) as previously described ([20]). The assays were performed using a BioTek Synergy2 multimode reader in conjunction with Gen5 analysis software. Increasing concentrations of NCF (Δε482 = 17,400 M^⁻¹ cm^⁻¹) were used, while fixed concentrations of the LDTs and PBPs were monitored for changes in absorbance at 482 nm over a time period of 0 to 10 min. To determine reaction velocities, a 0.25 cm path length was employed. The steady-state kinetic parameters (Vmax, kcat, and Km) were obtained by fitting the data to the Henri-Michaelis-Menten equation using a nonlinear least-squares fit in Origin 8.1 software (OriginLab, Northampton, MA). The reaction rate (v) at a given substrate concentration ([S]) was calculated according to the following equations: […]
# as §2, with “To determine the apparent inhibition constants (Ki,app) for β-lactams and BLIs, the following experimental condition was employed: NCF as a substrate at a concentration of 5 × Km, LDT/ PBP enzymes with fixed concentration, and β-lactams and BLIs with various concentrations. Changes” for “Changes”
# as §3
# LDT4 = LDT4 (Mycobacterium abscessus, UniProt B1MKW1); assay: Steady-state kinetics with nitrocefin (Ki,app); assay type: biochemical; conditions: in parentheses in Table 3
# Experimental: as §4
# as §2, with “To determine the apparent inhibition constants (Ki,app) for β-lactams and BLIs, the following experimental condition was employed: NCF as a substrate at a concentration of 5 × Km, LDT/ PBP enzymes with fixed concentration, and β-lactams and BLIs with various concentrations. Changes” for “Changes”
# as §3
# PBP-lipo [2] = biological target: T1, PBP-lipo (Mycobacteroides abscessus, UniProt B1MDC3); assay: Steady-state kinetics with nitrocefin (Ki,app); assay type: biochemical
# T1 construct: made in house; host or cells: Escherichia coli BL21 (DE3)
# Experimental: as §4
# as §2, with “To determine the apparent inhibition constants (Ki,app) for β-lactams and BLIs, the following experimental condition was employed: NCF as a substrate at a concentration of 5 × Km, LDT/ PBP enzymes with fixed concentration, and β-lactams and BLIs with various concentrations. Changes” for “Changes”
# as §3
# LDT2 [3] = biological target: T2, LDT2 (Mycobacterium abscessus, UniProt B1MMQ4); assay: Steady-state kinetics with nitrocefin (Ki,app); assay type: biochemical; conditions: for Ki: nitrocefin at 5 × Km, read-out: Ki,app LDT2 (converted)
# Experimental: as §4
# as §2, with “To determine the apparent inhibition constants (Ki,app) for β-lactams and BLIs, the following experimental condition was employed: NCF as a substrate at a concentration of 5 × Km, LDT/ PBP enzymes with fixed concentration, and β-lactams and BLIs with various concentrations. Changes” for “Changes”
# as §3
# LDT2 [4] = biological target: T2, LDT2; assay: Circular dichroism spectroscopy; assay type: binding; conditions: 5 µM LDT2, 10 µM β-lactam, 2 h, 25°C
# Experimental: The circular dichroism spectra of LDT2 (5 µM in PBS buffer) were recorded on a circular dichroism spectrometer with a 2 mm path length, both in the absence and presence of 10 µM imipenem, ceftaroline, sulopenem, and cefuroxime at 25°C. To ensure the detection of conformational changes, LDT2 and the β-lactams were incubated at room temperature for 2 h. The contribution of each β-lactam alone was subtracted in each case.
# PBP-lipo [5] = biological target: T1, PBP-lipo; assay: Bocillin-FL binding assay; conditions: 2 h incubation, 1:10 molar ratio
# Experimental: To analyze the binding of PBP-lipo with β-lactams or BLIs, purified PBP-lipo (4 µg) was incubated with β-lactams or BLIs at a 1:10 molar ratio in a buffer containing 10 mM sodium phosphate (pH 7.4) and 150 mM NaCl. The incubation was carried out for 2 h at room temperature. After the initial incubation, 1 µM Bocillin FL was added to the reaction mixture. The incubation was continued for an additional 3–4 h at 37°C. After incubation, the samples were boiled to denature the proteins. The samples were then subjected to SDS-PAGE. The PBP-lipo:Bocillin complexes were visualized by fluorescence analysis at a wavelength of 488 nm using an Azure 300 gel imaging system. The intensity of the PBP-lipo:Bocillin complex bands was analyzed using GelAnalyzer software. The intensity of the band for PBP-lipo alone (without β-lactams) was set to 1 as the highest intensity. The intensity of each band for PBP-lipo incubated with β-lactams was then normalized by dividing by the intensity of the band for PBP-lipo alone.
# [6] = tested on: Mycobacterium abscessus ATCC 19977 strain; assay: Morphological changes by flow cytometry and confocal microscopy; assay type: cell-based; conditions: clinically relevant unbound concentrations (fCss,ave), 24 h
# Experimental: Flow cytometry was employed to evaluate morphological changes in individual bacterial cells following PBP-lipo inactivation after 24 h of β-lactam treatment. The bacterial cells were stained using the BacLight kit L7012 (Thermo Fisher Scientific, Waltham, MA), containing SYTO 9 and propidium iodide (PI). Analysis was performed using a CytoFLEX flow cytometer (Beckman Coulter, CA), with data processed using CytExpert software.
# Bacterial morphological changes resulting from PBP-lipo inactivation were investigated using an ImageXpress Micro Confocal Microscope (Molecular Devices, CA). The staining procedures applied to the samples mirrored those used for flow cytometry. Stained bacterial cells were placed in optically clear flat-bottom 96-well plates, and observations were conducted at 60× magnification. Cell length measurements were obtained through automated image analysis using MetaXpress 6 software.
# Mab ATCC 19977 = assay: Static drug-concentration time-kill (SCTK) assay with CART analysis; assay type: cell-based, Mycobacterium abscessus; conditions: clinically achievable concentrations, over 10 days; AVI 4 mg/L; DUR 12 mg/L + SUL 7 mg/L
# [7] = ATCC19977, Mab ATCC 19977, no BLI added, 30°C, 48 h
# Chain of LDT1 (B1MDC1 entry or part of it): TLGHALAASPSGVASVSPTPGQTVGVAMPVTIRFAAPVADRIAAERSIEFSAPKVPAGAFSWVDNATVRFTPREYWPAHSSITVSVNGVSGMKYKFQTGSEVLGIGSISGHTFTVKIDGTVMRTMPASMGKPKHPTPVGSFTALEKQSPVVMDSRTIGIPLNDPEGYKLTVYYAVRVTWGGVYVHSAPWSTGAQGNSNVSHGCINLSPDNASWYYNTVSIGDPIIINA
# T1 sequence (B1MDC3 entry or part of it): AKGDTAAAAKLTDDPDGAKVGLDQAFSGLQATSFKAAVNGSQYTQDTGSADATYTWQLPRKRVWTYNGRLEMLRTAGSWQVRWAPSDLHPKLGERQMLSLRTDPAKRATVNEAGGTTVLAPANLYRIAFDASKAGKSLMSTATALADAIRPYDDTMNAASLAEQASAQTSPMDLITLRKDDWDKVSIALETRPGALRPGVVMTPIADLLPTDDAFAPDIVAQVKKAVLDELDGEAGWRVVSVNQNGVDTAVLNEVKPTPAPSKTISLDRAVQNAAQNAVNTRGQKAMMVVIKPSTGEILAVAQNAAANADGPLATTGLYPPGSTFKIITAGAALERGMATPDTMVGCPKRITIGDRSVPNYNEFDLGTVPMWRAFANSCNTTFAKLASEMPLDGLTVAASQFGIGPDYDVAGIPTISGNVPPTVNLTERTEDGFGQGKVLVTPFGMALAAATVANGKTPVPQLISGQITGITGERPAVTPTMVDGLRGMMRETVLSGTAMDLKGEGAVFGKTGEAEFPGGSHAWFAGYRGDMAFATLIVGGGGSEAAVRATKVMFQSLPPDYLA
# Chain of PBP B (B1MP31 entry or part of it): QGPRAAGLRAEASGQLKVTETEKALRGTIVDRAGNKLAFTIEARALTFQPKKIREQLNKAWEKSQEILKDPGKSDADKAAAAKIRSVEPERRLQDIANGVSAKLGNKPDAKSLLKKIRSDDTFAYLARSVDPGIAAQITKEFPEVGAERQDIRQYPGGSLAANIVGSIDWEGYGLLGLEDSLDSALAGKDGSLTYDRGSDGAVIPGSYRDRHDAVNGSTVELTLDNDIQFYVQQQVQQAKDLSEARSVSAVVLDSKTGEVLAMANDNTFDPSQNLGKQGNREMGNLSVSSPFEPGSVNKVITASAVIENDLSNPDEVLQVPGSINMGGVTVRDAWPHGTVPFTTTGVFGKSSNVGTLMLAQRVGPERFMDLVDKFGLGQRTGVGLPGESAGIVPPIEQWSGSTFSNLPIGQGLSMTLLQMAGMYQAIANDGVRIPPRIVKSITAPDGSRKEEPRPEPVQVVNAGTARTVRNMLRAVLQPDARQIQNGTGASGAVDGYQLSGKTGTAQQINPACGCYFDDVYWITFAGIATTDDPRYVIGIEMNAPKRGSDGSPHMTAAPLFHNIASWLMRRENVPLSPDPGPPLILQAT
# T2 sequence (B1MMQ4 entry or part of it): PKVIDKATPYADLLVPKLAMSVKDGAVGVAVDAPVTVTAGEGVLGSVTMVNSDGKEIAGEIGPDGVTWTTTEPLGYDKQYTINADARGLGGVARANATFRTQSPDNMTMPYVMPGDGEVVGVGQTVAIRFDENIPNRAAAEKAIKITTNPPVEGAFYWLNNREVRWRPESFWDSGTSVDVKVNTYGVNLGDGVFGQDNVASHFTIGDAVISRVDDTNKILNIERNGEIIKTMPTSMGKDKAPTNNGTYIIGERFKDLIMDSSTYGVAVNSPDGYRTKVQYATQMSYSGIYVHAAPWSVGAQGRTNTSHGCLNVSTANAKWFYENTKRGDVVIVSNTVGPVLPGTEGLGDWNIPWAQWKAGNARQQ
# Chain of LDT3 (B1MHQ4 entry or part of it): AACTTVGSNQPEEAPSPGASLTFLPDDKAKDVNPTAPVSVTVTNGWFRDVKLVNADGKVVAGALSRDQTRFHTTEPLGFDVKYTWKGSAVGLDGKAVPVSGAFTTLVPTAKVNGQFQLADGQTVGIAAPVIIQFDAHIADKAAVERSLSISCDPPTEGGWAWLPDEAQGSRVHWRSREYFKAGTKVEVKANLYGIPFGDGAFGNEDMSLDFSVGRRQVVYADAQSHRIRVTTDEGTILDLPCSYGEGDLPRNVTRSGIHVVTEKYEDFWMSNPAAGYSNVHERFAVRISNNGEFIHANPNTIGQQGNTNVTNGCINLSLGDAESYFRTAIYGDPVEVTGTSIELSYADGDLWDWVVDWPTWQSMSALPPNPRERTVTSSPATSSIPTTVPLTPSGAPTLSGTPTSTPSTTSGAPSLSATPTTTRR
# Chain of DDC (B1MDJ1 entry or part of it): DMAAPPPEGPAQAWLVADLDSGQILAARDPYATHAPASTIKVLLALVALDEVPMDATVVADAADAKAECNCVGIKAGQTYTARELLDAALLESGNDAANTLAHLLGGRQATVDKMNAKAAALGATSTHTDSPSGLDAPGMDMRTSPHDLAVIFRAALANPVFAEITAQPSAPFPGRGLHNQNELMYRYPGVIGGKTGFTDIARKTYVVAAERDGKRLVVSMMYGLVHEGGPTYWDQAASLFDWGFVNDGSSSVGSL
# Chain of LDT5 (B1MM58 entry or part of it): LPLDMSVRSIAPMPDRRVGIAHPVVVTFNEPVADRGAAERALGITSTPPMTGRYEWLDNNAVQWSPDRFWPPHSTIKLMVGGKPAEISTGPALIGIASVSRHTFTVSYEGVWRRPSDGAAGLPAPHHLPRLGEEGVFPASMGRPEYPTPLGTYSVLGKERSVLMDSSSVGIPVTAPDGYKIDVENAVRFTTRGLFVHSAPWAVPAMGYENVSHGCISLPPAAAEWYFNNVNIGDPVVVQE
# Chain of BlaMab (B1MCI3 entry or part of it): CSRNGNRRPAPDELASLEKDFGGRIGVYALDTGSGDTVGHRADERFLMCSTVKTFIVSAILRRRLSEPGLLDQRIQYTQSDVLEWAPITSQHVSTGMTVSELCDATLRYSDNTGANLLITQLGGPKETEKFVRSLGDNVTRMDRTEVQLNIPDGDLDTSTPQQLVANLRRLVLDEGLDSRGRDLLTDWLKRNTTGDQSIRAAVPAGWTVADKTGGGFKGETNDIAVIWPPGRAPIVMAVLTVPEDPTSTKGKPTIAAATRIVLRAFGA
# Chain of LDT4 (B1MKW1 entry or part of it): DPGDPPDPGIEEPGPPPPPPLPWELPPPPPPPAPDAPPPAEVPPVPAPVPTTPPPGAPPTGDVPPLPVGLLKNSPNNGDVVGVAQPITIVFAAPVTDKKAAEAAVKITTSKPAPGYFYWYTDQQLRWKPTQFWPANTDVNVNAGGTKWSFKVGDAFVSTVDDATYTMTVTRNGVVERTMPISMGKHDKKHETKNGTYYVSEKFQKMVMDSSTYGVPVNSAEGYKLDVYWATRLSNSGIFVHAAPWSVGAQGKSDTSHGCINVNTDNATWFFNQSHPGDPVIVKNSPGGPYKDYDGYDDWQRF
smiles,measurement,setting,value
"NCC[C@H](O)C(=O)N[C@@H]1C[C@H](N)[C@@H](O[C@H]2O[C@H](CN)[C@@H](O)[C@H](O)[C@H]2O)[C@H](O)[C@H]1O[C@H]1O[C@H](CO)[C@@H](O)[C@H](N)[C@H]1O [Amikacin, amikacin]",Average unbound concentration at steady-state,[1]; amikacin doses between 20 and 30 mg/kg,12 mg/L
same,MIC,Mab ATCC 19977 strain; [7],16 µg/mL
"CO[C@@]1(NC(=O)Cc2cccs2)C(=O)N2C(C(=O)O)=C(COC(N)=O)CS[C@@H]21 [Cefoxitin, cefoxitin]",MIC,Mab ATCC 19977 strain; [7],16 µg/mL
"CCO/N=C(\C(=O)N[C@@H]1C(=O)N2C(C(=O)[O-])=C(Sc3nc(-c4cc[n+](C)cc4)cs3)CS[C@H]12)c1nsc(N)n1 [Ceftaroline, ceftaroline]",Ki,BlaMab,681 µM
same,"Ratio of fCss,avg to Ki,app, DDC",DDC,0.3
same,"Ratio of fCss,avg to Ki,app, LDT5",LDT5,0.1
same,Ki,PBP B,2.32 µM
same,"Ratio of fCss,avg to Ki,app, PBP B",PBP B; in parentheses in Table 3,5
same,"fCss,avg","[1]; median unbound average steady-state plasma concentration, continuous infusion, daily dose DUR 4,000, AVI 1,500, IPM 4,000, CFT 1,800, AMX 1,500, SULO 1,000, CXM 1,500, SUL 4,000, TBP 1,800 mg",7 mg/L
same,"Observed MW (+ change in mw), LDT3 (44,795)",LDT3,"44,794 (−) Da"
same,MIC,"Mab ATCC 19977 strain; ATCC19977, 48 h",16 µg/mL
same,"MIC, + AVI (4 mg/L)",Mab ATCC 19977 strain; fixed avibactam 4 mg/L,1 to 2 µg/mL
same,"MIC, + DUR + SUL (1 mg/L)",Mab ATCC 19977 strain; fixed durlobactam 1 mg/L + sulbactam 1 mg/L,2 µg/mL
same,"Ratio of fCss,avg to Ki,app, LDT1",LDT1; in parentheses in Table 3,14
same,Ki,LDT1,0.827 µM
same,"Ratio of fCss,avg to Ki,app, LDT4",LDT4,0.1
same,Ki,PBP-lipo [2],23.2 µM
same,"Ratio of fCss,avg to Ki,app, PBP-lipo",PBP-lipo [2]; in parentheses in Table 3,0.5
same,"Ratio of fCss,avg to Ki,app, LDT2",LDT2 [3]; in parentheses in Table 3,10
same,Ki,LDT2 [3],1.16 µM
same,Conformational change of LDT2 (CD spectrum),LDT2 [4],altered its secondary structure
same,Binding to PBP-lipo (Bocillin-FL competition),PBP-lipo [5],demonstrated binding to PBP-lipo
"CC[C@H]1OC(=O)[C@H](C)[C@@H](O[C@H]2C[C@@](C)(OC)[C@@H](O)[C@H](C)O2)[C@H](C)[C@@H](O[C@@H]2O[C@H](C)C[C@H](N(C)C)[C@H]2O)[C@](C)(OC)C[C@@H](C)C(=O)[C@H](C)[C@@H](O)[C@]1(C)O [Clarithromycin, clarithromycin]",Steady-state average unbound concentration,[1]; daily dose of 1000 mg,0.3 mg/L
same,MIC,Mab ATCC 19977 strain; [7],8 µg/mL
"CC1(C)[C@H](C(=O)O)N2C(=O)C[C@H]2S1(=O)=O [Sulbactam, sulbactam]",Ki,PBP B,55.7 µM
same,Ki,LDT1,643 µM
same,Ki,LDT2 [3],0.0857 µM
same,Morphological change of Mab cells,[6],did not induce noticeable morphological changes
same,Bacterial killing (log10 reduction) in time-kill,Mab ATCC 19977,no bacterial killing
